{
  "source": "paper PMC8838850",
  "about": "“Synthesis, Antimicrobial, Anti-Virulence and Anticancer Evaluation of New 5(4H)-Oxazolone-Based Sulfonamides” (Molecules, 2022)",
  "key": {"[1]": {"tested_on": "Pseudomonas aeruginosae ATCC 47085", "assay": "MIC by agar dilution", "type": "cell-based, Pseudomonas aeruginosa", "details": "20 h", "protocol": "(§1) The MICs of the synthesized compound were determined by agar dilution method according to the Clinical Laboratory and Standards Institute Guidelines (CLSI, 2015). Briefly, the tested strains were incubated overnight in tryptic soy broth (TSB) (Oxoid, United Kingdom) and then diluted in Muller–Hinton (MH) broth (Oxoid, United Kingdom) to turbidity approximating to the equivalent of 0.5 McFarland standard. The suspensions were further diluted with sterile saline (1:10) and standardized inoculums (approximately 10^4 CFU per spot) were spotted on the surfaces of MH agar (Oxoid, United Kingdom) plates containing different concentrations of tested compounds and a control plate. The MICs were the lowest concentrations that inhibit growth on the plates after incubation at 37 °C for 20 h."}, "[2]": {"tested_on": "Aspergillus niger ATCC 16404", "assay": "MIC by agar dilution (antifungal)", "type": "cell-based", "protocol": "as §1"}, "Panc-1": {"tested_on": "Panc-1", "assay": "SRB cellular proliferation assay", "type": "cell-based, human", "details": "Panc-1 cells, mean ± SD (n = 3)", "protocol": "(§2) The pancreatic human cancer cell lines BxPC-3 and Panc-1, the human hepatocellular carcinoma (HepG-2), and the normal immortalized pancreatic cell line HPDE, that were used in this study, were obtained from the American Type Culture Collection (Rockville, USA). Cell lines were cultured and treated with the tested compounds or dimethyl sulfoxide (DMSO) as previously described. Cells were cultivated in DMEM medium (Invitrogen, Carlsbad, CA, USA), supplemented with streptomycin, penicillin and fetal bovine serum (FCS) (Invitrogen, Carlsbad, CA, USA). The sulforhodamine B (SRB) assay was employed to assess the anti-proliferative effects of tested compounds on cancer cells. Cell lines were incubated and regularly treated with DMSO or increasing doses of tested compounds for 48 h. The cells were fixed with 10% trichloroacetic acid and stained with SRB fluorescent dye for 30 min. Then, the bounded SRB dye to cellular proteins was dissolved in 10 mM Tris base after washing excess dye with 1% acetic acid. The absorbance was measured at 510 nm in a reader (Biotek, Winooski, VT, USA)."}, "BxPC-3": {"tested_on": "BxPC-3", "assay": "SRB cellular proliferation assay", "type": "cell-based, human", "details": "BxPC-3 cells, mean ± SD (n = 3)", "protocol": "as §2"}, "HepG-2": {"tested_on": "HepG-2", "assay": "SRB cellular proliferation assay", "type": "cell-based, human", "details": "mean ± SD (n = 3)", "protocol": "as §2"}, "HPDE": {"tested_on": "HPDE", "assay": "SRB cell viability assay, normal cells", "type": "cell-based", "protocol": "Firstly, to determine the cell viability, HPDE cell lines were treated with all new synthesized compounds 9a–k for 96 h using sulforhodamine B (SRB) assay. All newly synthesized compounds were proven non-toxic with IC50 more than […] (Table 2).\nThe pancreatic human cancer cell lines BxPC-3 and Panc-1, the human hepatocellular carcinoma (HepG-2), and the normal immortalized pancreatic cell line HPDE, that were used in this study, were obtained from the American Type Culture Collection (Rockville, USA). Cell lines were cultured and treated with the tested compounds or dimethyl sulfoxide (DMSO) as previously described. Cells were cultivated in DMEM medium (Invitrogen, Carlsbad, CA, USA), supplemented with streptomycin, penicillin and fetal bovine serum (FCS) (Invitrogen, Carlsbad, CA, USA).\nThe sulforhodamine B (SRB) assay was employed to assess the anti-proliferative effects of tested compounds on cancer cells. Cell lines were incubated and regularly treated with DMSO or increasing doses of tested compounds for 48 h. The cells were fixed with 10% trichloroacetic acid and stained with SRB fluorescent dye for 30 min. Then, the bounded SRB dye to cellular proteins was dissolved in 10 mM Tris base after washing excess dye with 1% acetic acid. The absorbance was measured at 510 nm in a reader (Biotek, Winooski, VT, USA)."}, "[3]": {"tested_on": "Staphylococcus epidermidis ATCC 12228", "assay": "MIC by agar dilution", "type": "cell-based", "details": "20 h", "protocol": "as §1"}, "[4]": {"tested_on": "Klebsiella pneumoniae ATCC 27736", "assay": "MIC by agar dilution", "type": "cell-based", "details": "20 h", "protocol": "as §1"}, "[5]": {"tested_on": "Escherichia coli ATCC 10536", "assay": "MIC by agar dilution", "type": "cell-based", "details": "20 h", "protocol": "as §1"}, "[6]": {"tested_on": "Salmonella typhimurium ATCC 14028", "assay": "MIC by agar dilution", "type": "cell-based", "details": "37 °C, 20 h", "protocol": "as §1"}, "[7]": {"tested_on": "Staphylococcus aureus ATCC 6538", "assay": "MIC by agar dilution", "type": "cell-based", "details": "20 h", "protocol": "as §1"}, "[8]": {"tested_on": "Micrococcus spp. ATCC 10240", "assay": "MIC by agar dilution", "type": "cell-based", "details": "20 h", "protocol": "as §1"}, "[9]": {"tested_on": "Candida albicans ATCC 10231", "assay": "MIC by agar dilution (antifungal)", "type": "cell-based", "details": "Candida albicans ATCC 10231", "protocol": "as §1"}},
  "note": "Values joined by “and” are separate entries in the source; they are usually repeats but may differ in a detail not shown here. Equal entries are not always repeated. Where two headings read alike, the source gives them in different places.",
  "data": [
    {"compound": "Cc1ccc(S(=O)(=O)Nc2ccccc2C2=N/C(=C/c3ccncc3)C(=O)O2)cc1", "note": "[Compound 9k, (E)-4-Methyl-N-(2-(5-oxo-4-(pyridin-4-ylmethylene)-4,5-dihydrooxazol-2-yl)phenyl)benzenesulfonamide]", "values": [
      {"measurement": "MIC", "setting": "[1]; ATCC47085, 37 °C, read-out: Minimum inhibitory concentration (MIC)", "result": "> 32", "unit": "mg/L"},
      {"measurement": "melting point", "result": "210 to 212", "unit": "°C"},
      {"measurement": "MIC", "setting": "[2]; ATCC16404, 20 h, read-out: Minimum inhibitory concentration (MIC)", "result": 16, "unit": "mg/L"},
      {"measurement": "MIC", "setting": "[2]; ATCC16404, read-out: Minimum inhibitory concentration (MIC)", "result": "> 32", "unit": "mg/L"},
      {"measurement": "IC50", "setting": "Panc-1; Homo sapiens, read-out: IC50", "result": "19.9 ± 3.35", "unit": "mg/L"},
      {"measurement": "IC50", "setting": "BxPC-3; Homo sapiens, read-out: IC50", "result": "7.27 ± 1.49", "unit": "mg/L"},
      {"measurement": "IC50", "setting": "HepG-2; Homo sapiens, HepG2, HepG-2 cells, read-out: IC50", "result": "33.1 ± 5.12", "unit": "mg/L"},
      {"measurement": "IC50", "setting": "HPDE; normal HPDE cells, read-out: IC50", "result": "> 50", "unit": "mg/L"},
      {"measurement": "MIC", "setting": "[3]; ATCC12228, 37 °C, read-out: Minimum inhibitory concentration (MIC)", "result": 4, "unit": "mg/L"},
      {"measurement": "MIC", "setting": "[4]; ATCC27736, 37 °C, read-out: Minimum inhibitory concentration (MIC)", "result": "> 32", "unit": "mg/L"},
      {"measurement": "MIC", "setting": "[5]; ATCC10536, 37 °C, read-out: Minimum inhibitory concentration (MIC)", "result": 16, "unit": "mg/L"},
      {"measurement": "MIC", "setting": "[6]; Salmonella enterica, read-out: Minimum inhibitory concentration (MIC)", "result": "> 32", "unit": "mg/L"},
      {"measurement": "MIC", "setting": "[7]; ATCC6538, 37 °C, read-out: Minimum inhibitory concentration (MIC)", "result": 4, "unit": "mg/L"},
      {"measurement": "MIC", "setting": "[8]; ATCC10240, 37 °C, read-out: Minimum inhibitory concentration (MIC)", "result": 2, "unit": "mg/L"}
    ]},
    {"compound": "(E)-4-Methyl-N-(2-(4-(naphthalen-1-ylmethylene)-5-oxo-4,5-dihydrooxazol-2-yl)phenyl)benzenesulfonamide [Compound 9h]", "values": [
      {"measurement": "Minimum inhibitory concentration (MIC)", "setting": "[1]; 37 °C", "result": ">32", "unit": "mg/L"},
      {"measurement": "Minimum inhibitory concentration (MIC)", "setting": "[9]", "result": "4 mg/L and 2 mg/L"},
      {"measurement": "Minimum inhibitory concentration (MIC)", "setting": "[2]", "result": "8 mg/L and 4 mg/L"},
      {"measurement": "IC50", "setting": "Panc-1", "result": "14.72 ± 2.87", "unit": "mg/L"},
      {"measurement": "IC50", "setting": "BxPC-3", "result": "12.60 ± 0.62", "unit": "mg/L"},
      {"measurement": "IC50", "setting": "HepG-2; HepG-2 cells", "result": "17.34 ± 0.96", "unit": "mg/L"},
      {"measurement": "IC50", "setting": "HPDE; HPDE normal immortalized cell line, 96 h", "result": ">50000", "unit": "mg/L"},
      {"measurement": "Minimum inhibitory concentration (MIC)", "setting": "[3]; 37 °C", "result": ">32", "unit": "mg/L"},
      {"measurement": "Minimum inhibitory concentration (MIC)", "setting": "[4]; 37 °C", "result": ">32", "unit": "mg/L"},
      {"measurement": "Minimum inhibitory concentration (MIC)", "setting": "[5]; 37 °C", "result": ">32", "unit": "mg/L"},
      {"measurement": "Minimum inhibitory concentration (MIC)", "setting": "[6]", "result": ">32", "unit": "mg/L"},
      {"measurement": "Minimum inhibitory concentration (MIC)", "setting": "[7]; 37 °C", "result": ">32", "unit": "mg/L"},
      {"measurement": "Minimum inhibitory concentration (MIC)", "setting": "[8]; 37 °C", "result": ">32", "unit": "mg/L"}
    ]}
  ]
}
